# According to paper PMC9967275, “Screening the Pathogen Box to Discover and Characterize New Cruzain and TbrCatL Inhibitors” (Pathogens, 2023):
# Read-outs that look alike come from different tables or passages of the source.
# Key:
# [1] = target: cruzain (Trypanosoma cruzi, UniProt P25779); experiment: biochemical; conditions: for Cruzain 0’ Inhibition / Cruzain 10’ Inhibition: sheet "Screening results";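 on Cruzain 0’ Inhibition: at 5 µM compound concentration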;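 on Cruzain 10’ Inhibition: at 5 µM compound concentration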;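 on Cruzain Inhibition 0’: at 5 µM compound concentration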;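 on Cruzain Inhibition 10’: at 5 µM compound concentration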
# Procedure, shortened: (§1)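 Recombinant enzymes assayed by Z-Phe-Arg-AMC cleavage at 25 °C, fluorescence 340/440 nm over 5–7 min, with 10 min or no enzyme–compound preincubation.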
# [2] = target: T1, TbrCatL (Trypanosoma brucei rhodesiense, UniProt Q95PM0); experiment: TbrCatL enzymatic inhibition assay (cleavage of fluorogenic substrate Z-FR-AMC); format: biochemical; conditions: for TbrCatL 0’ Inhibition / TbrCatL 10’ Inhibition: sheet "Screening results";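 on TbrCatL 0’ Inhibition: at 5 µM compound concentration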;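 on TbrCatL 10’ Inhibition: at 5 µM compound concentration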;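 on TbrCatL Inhibition 0’: at 5 µM compound concentration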;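 on TbrCatL Inhibition 10’: at 5 µM compound concentration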
# T1 construct: Conor Caffrey (University of California San Diego)
# Procedure, shortened: as §1
# [3] = 0’ (pre-incubation time), Pathogen Box screening results
# [4] = 10’ (pre-incubation time), Pathogen Box screening results
# [5] = 0’ (no pre-incubation), sheet Screening results
# [6] = 10’ (pre-incubation), sheet Screening results
# T1 sequence (Q95PM0 entry or part of it): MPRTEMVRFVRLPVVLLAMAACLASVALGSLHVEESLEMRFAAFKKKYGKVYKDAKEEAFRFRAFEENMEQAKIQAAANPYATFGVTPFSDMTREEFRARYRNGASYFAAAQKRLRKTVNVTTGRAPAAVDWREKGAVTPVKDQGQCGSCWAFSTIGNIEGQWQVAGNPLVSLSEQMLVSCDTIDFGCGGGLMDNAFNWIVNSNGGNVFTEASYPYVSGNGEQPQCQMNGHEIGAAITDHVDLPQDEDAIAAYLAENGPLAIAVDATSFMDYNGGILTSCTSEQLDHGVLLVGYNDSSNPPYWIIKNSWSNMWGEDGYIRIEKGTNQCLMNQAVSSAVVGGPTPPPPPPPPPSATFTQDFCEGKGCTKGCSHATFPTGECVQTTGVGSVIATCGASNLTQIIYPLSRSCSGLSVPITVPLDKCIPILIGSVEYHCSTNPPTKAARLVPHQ
# cruzain, sequence (P25779 123-337 limits assumed): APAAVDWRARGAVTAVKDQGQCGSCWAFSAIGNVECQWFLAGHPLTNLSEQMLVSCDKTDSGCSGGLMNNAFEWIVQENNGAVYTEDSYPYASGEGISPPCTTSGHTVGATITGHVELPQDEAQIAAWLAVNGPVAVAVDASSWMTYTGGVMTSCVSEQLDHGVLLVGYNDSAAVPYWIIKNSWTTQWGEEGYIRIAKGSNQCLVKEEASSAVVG
SMILES,Cruzain 0’ Inhibition ([1]; 0’ (pre-incubation time)),Cruzain 10’ Inhibition ([1]; 10’ (pre-incubation time)),TbrCatL 0’ Inhibition ([2]; 0’ (pre-incubation time)),TbrCatL 10’ Inhibition ([2]; 10’ (pre-incubation time)),"Cruzain Inhibition 0’ [1, 5]","Cruzain Inhibition 10’ [1, 6]","TbrCatL Inhibition 0’ [2, 5]","TbrCatL Inhibition 10’ [2, 6]",also measured
CCOc1ccc(-c2nc(CNCCc3ccc(F)cc3)cs2)cc1 [MMV688938],6%,12%,3%,-3.6%,,,,,
Cc1ccc2nc(C)c(-c3ccn(Cc4ccccc4)n3)n2c1 [MMV688939],,,,,,,,,"Cruzain Inhibition 0’ [1, 3]: -1.4%; Cruzain Inhibition 10’ [1, 4]: -4%; TbrCatL Inhibition 0’ [2, 3]: -0.4%; TbrCatL Inhibition 10’ [2, 4]: -9%"
COc1cc(CN2CCC3(C=Cc4ccccc43)CC2)cc2c1OCO2 [MMV688941],1.7%,6%,-3.2%,-4%,,,,,
CC(C)(C)C(O)C(Oc1ccc(-c2ccccc2)cc1)n1cncn1 (stereo not shown) [MMV688942],,,,,14%,9%,13%,-1.4%,
CC1COC(Cn2cncn2)(c2ccc(Oc3ccc(Cl)cc3)cc2Cl)O1 (stereo not shown) [MMV688943],,,,,13%,10%,15%,4%,
Cc1cc(NC(=O)c2ccc(Oc3ccc(Cl)cc3O)o2)no1 [MMV688955],-9%,-13%,-6%,-12%,,,,,
CC(=O)OC[C@H]1O[C@@H]([S-])[C@H](OC(C)=O)[C@@H](OC(C)=O)[C@@H]1OC(C)=O.CC[PH+](CC)CC.[Au] [MMV688978],,,,,,,,,"Cruzain Inhibition 0’ [1, 3]: -20%; Cruzain Inhibition 10’ [1, 4]: -71%; TbrCatL Inhibition 0’ [2, 3]: -13%; TbrCatL Inhibition 10’ [2, 4]: -63%"
CCc1cc(=O)n(C)c(SC(C)C(=O)Nc2ccc(F)cc2)n1 (stereo not shown) [MMV688980],-3.8%,-0.6%,-11%,-14%,,,,,
CCCCCCCCCCCCCCCCOP(=O)([O-])OCC[N+](C)(C)C [MMV688990],,,,,,,,,"Cruzain Inhibition 0’ [1, 3]: -0.1%; Cruzain Inhibition 10’ [1, 4]: 0.6%; TbrCatL Inhibition 0’ [2, 3]: -2.4%; TbrCatL Inhibition 10’ [2, 4]: -12%"
CC(=O)Oc1ccccc1C(=O)Nc1ncc([N+](=O)[O-])s1 [MMV688991],,,,,8%,4%,10%,3.7%,
CNC1C(OC2C(OC3C(O)C(O)C(N=C(N)N)C(O)C3N=C(N)N)OC(C)C2(O)C=O)OC(CO)C(O)C1O (stereo not shown) [MMV688994],,,,,-4%,-2.3%,1.1%,1.5%,
C[C@@H]1[C@H](O)[C@@H](C)/C=C/C=C/C=C/C=C/C=C/C=C/C=C/[C@H](O[C@@H]2O[C@H](C)[C@@H](O)[C@H](N)[C@@H]2O)C[C@@H]2O[C@](O)(C[C@@H](O)C[C@@H](O)[C@H](O)CC[C@@H](O)C[C@@H](O)CC(=O)O[C@H]1C)C[C@H](O)[C@H]2C(=O)O [MMV689000],10%,10%,11%,9%,,,,,
Cc1ccc(S(=O)(=O)Nc2ccc(CN3CCN(C(=O)c4cccc(C#N)c4)CC3)cc2)cc1 [MMV689028],,,,,-0.6%,8%,-0.6%,-0.3%,
COc1ccc(S(=O)(=O)Nc2ccc(CN3CCN(C(=O)c4cccc(C#N)c4)CC3)cc2)cc1 [MMV689029],2.5%,5.4%,0.7%,1.2%,,,,,
Clc1ccc(CN2CCN(C3=NCCN3)CC2)cc1Cl [MMV689060],,,,,-3%,-0.1%,-5%,2%,
CC(=O)Nc1ccc(-c2noc(CC3CCCN(Cc4cccc(F)c4C)C3)n2)cc1 (stereo not shown) [MMV689061],,,,,1.2%,3.6%,0%,0.8%,
FC(F)(F)c1ccc(N(c2cccnc2)C2CCN(c3ccc(C(F)(F)F)cn3)CC2)cc1 [MMV689243],2.3%,-3%,-9%,-5%,,,,,

SMILES,Cruzain 0’ Inhibition ([1]; 0’ (pre-incubation time)),Cruzain 10’ Inhibition ([1]; 10’ (pre-incubation time)),TbrCatL 0’ Inhibition ([2]; 0’ (pre-incubation time)),TbrCatL 10’ Inhibition ([2]; 10’ (pre-incubation time)),"Cruzain Inhibition 0’ [1, 5]","Cruzain Inhibition 10’ [1, 6]","TbrCatL Inhibition 0’ [2, 5]","TbrCatL Inhibition 10’ [2, 6]",also measured
O=C([C@@H](c1ccc(Cl)cc1)c1cccnc1)N1CCN(c2ccc(C(F)(F)F)cc2)CC1 [MMV689244],2.7%,-3.2%,6.4%,-2.8%,,,,,
Nc1ncnc2c1ncn2C[C@@H](O)[C@@H](O)C(=O)O [MMV689255],,,,,18%,2%,3.4%,-1.3%,
CC(c1cc(Cl)cc(Cl)c1)N(C)c1ncc2c(N)nc(N)nc2n1 (stereo not shown) [MMV689437],-3%,9%,-12%,3.6%,,,,,
CNc1cc(C)nc(C2CN(C(=O)c3n[nH]c4ccccc34)CCO2)c1 (stereo not shown) [MMV689709],-1.4%,1.3%,8%,3.8%,,,,,
COc1nc2ccc(Br)cc2cc1[C@@H](c1ccccc1)[C@@](O)(CCN(C)C)c1cccc2ccccc12 [MMV689758],,,,,19%,10%,9%,-1.4%,
COc1ccc(C2=NN(C3CCCCCC3)C(=O)[C@H]3CC=CC[C@@H]23)cc1OCCCCOc1ccc(-c2nn[nH]n2)cc1 [MMV690027],,,,,,,6.4%,-1.8%,"inhibition at 5 µM ([1]; read-out: Inhibition at 5 µM (Mean ± SEM %) Cruzain 0′, 5 µM, no pre-incubation, initial screening): 50 ± 5%; inhibition at 5 µM ([1]; read-out: Inhibition at 5 µM (Mean ± SEM %) Cruzain 10′ inc, 5 µM, 10′ pre-incubation, initial screening): 33 ± 2%; inhibition at 5 µM ([1]; read-out: Inhibition of cruzain or TbrCatL (either enzyme) in the initial screening, 5 µM, either cruzain or TbrCatL, with or without pre-incubation): ≥ 40%; inhibition at 5 µM ([2]; read-out: Inhibition at 5 µM (Mean ± SEM %) TbrCatL 0′): 6 ± 2%; inhibition at 5 µM ([2]; read-out: Inhibition at 5 µM (Mean ± SEM %) TbrCatL 10′ inc): 0%"
COc1ccc(Oc2ccc([C@@H](C)N(C)c3ncc4c(N)nc(N)nc4n3)cc2)cc1 [MMV690102],0.4%,12%,-2.5%,14%,,,,,
C[C@H](c1ccc2c(c1)CCCC2)N(C)c1ncc2c(N)nc(N)nc2n1 [MMV690103],-2.7%,16%,-18%,-22%,,,,,
CCc1ccc(C(NCc2nc(N)nc(N(C)C)n2)C(C)C)cc1 (stereo not shown) [MMV1019989],-10%,-7%,-6%,-5%,,,,,
O=C(Nc1nc(-c2ccccn2)cs1)C1CC1c1ccccc1F (stereo not shown) [MMV1028806],,,,,24%,17%,17%,3.6%,
CNC(=O)CNc1nc(-c2ccccn2)nc2scc(-c3ccccc3)c12 [MMV1029203],-6%,28%,-10%,-7%,,,,,
CCCn1c(NC(=O)c2ccc3ccccc3n2)nc2ccccc21 [MMV1030799],-3.4%,2.4%,-8%,-11%,,,,,
CCNC(=O)C(C)Nc1nc(-c2cccnc2)nc2sc(C)c(C)c12 (stereo not shown) [MMV1037162],-0.8%,1.7%,6%,-0.5%,,,,,
Cc1ccc(-c2nc(CN(Cc3ccccn3)C(C)C)cs2)o1 [MMV1088520],-17%,-15%,-6%,-24%,,,,,
COc1cccn2c(C(=O)N3CCCCC3)c(C(F)(F)F)nc12 [MMV1110498],,,,,8%,9%,13%,6.4%,
Cc1cc(OCC(=O)Nc2ccc(C(C)C)cc2)n(C)c(=O)c1C#N [MMV1198433],-4.6%,-6%,-5%,-4.5%,,,,,
CCOC(=O)c1noc(N)c1-c1ccccc1 [MMV1236379],,,,,,,,,"Cruzain Inhibition 0’ [1, 3]: -8%; Cruzain Inhibition 10’ [1, 4]: 7%; TbrCatL Inhibition 0’ [2, 3]: -9%; TbrCatL Inhibition 10’ [2, 4]: -1.7%"
